# Laboratory results from PMC7898037, “Improving mitochondria and ER stability helps eliminate upper motor neuron degeneration that occurs due to mSOD1 toxicity and TDP‐43 pathology” (Clinical and Translational Medicine, 2021).
# Test: Weight of the mice
# Format: in vivo
# Parameters: Mean Diff. of weight, vehicle vs. NU-9: unit not given here
# Conditions: for Mean weight (Mean 2): WT-UeGFP mice, in g (unit assumed); for Weight, Average: WT-UeGFP
# Description: hSOD1^G93A‐UeGFP, prpTDP‐43^A315T‐UeGFP and WT‐UeGFP mice were weighed and the required NU‐9 dose per weight was calculated (20 or 100 mg/kg), which was administered once daily by oral gavage, starting at postnatal day (P)60 and continuing until P120. Animals from the untreated group received the vehicle (NMP and olive oil) only. For oral administration purposes, 20 ga × 38 mm plastic feeding tubes were used (Instech Laboratories, Inc). The gavage tip was inserted into the mouth directly over the tongue and into the pharynx. While observing the swallowing reflex, the tip was safely and smoothly slid into the esophagus. Once the administration was completed, the gavage tip was pulled straight out.
# Behavior data were collected from hSOD1^G93A‐UeGFP and WT‐UeGFP mice (starting at P60 and every 7 days until P116) and from prpTDP‐43^A315T‐UeGFP mice (at P60, P90, and P120) with the following number of mice for each group: WT‐UeGFP vehicle (n = 10), hSOD1^G93A‐UeGFP vehicle (n = 6), WT‐UeGFP 20 mg/kg/day NU‐9 (n = 5), hSOD1^G93A‐UeGFP 20 mg/kg/day NU‐9 (n = 7), WT‐UeGFP 100 mg/kg/day NU‐9 (n = 11), hSOD1^G93A‐UeGFP 100 mg/kg/day NU‐9 (n = 9), prpTDP‐43^A315T‐UeGFP untreated (n ≥ 3), and prpTDP‐43^A315T‐UeGFP 100 mg/kg/day NU‐9 (n = 4) (Table S3).
smiles,measurement,setting,value
C[C@H](Oc1cc(C(F)(F)F)cc(C(F)(F)F)c1)C1CC(=O)CC(=O)C1 [NU‐9],"Mean Diff. of weight, vehicle vs. NU-9","WT-UeGFP (vehicle) vs. WT-UeGFP (NU-9 20 mg/kg/day), P60, Tukey's multiple comparisons test",-0.6
same,"Mean Diff. of weight, vehicle vs. NU-9","WT-UeGFP (vehicle) vs. WT-UeGFP (NU-9 20 mg/kg/day), P67, Tukey's multiple comparisons test",-1.3
same,"Mean Diff. of weight, vehicle vs. NU-9","WT-UeGFP (vehicle) vs. WT-UeGFP (NU-9 20 mg/kg/day), P74, Tukey's multiple comparisons test",-0.9
same,"Mean Diff. of weight, vehicle vs. NU-9","WT-UeGFP (vehicle) vs. WT-UeGFP (NU-9 20 mg/kg/day), P81, Tukey's multiple comparisons test",-0.5
same,"Mean Diff. of weight, vehicle vs. NU-9","WT-UeGFP (vehicle) vs. WT-UeGFP (NU-9 20 mg/kg/day), P88, Tukey's multiple comparisons test",-0.1
same,"Mean Diff. of weight, vehicle vs. NU-9","WT-UeGFP (vehicle) vs. WT-UeGFP (NU-9 20 mg/kg/day), P95, Tukey's multiple comparisons test",0
same,"Mean Diff. of weight, vehicle vs. NU-9","WT-UeGFP (vehicle) vs. WT-UeGFP (NU-9 20 mg/kg/day), P102, Tukey's multiple comparisons test",-0.2
same,"Mean Diff. of weight, vehicle vs. NU-9","WT-UeGFP (vehicle) vs. WT-UeGFP (NU-9 20 mg/kg/day), P109, Tukey's multiple comparisons test",-1
same,"Mean Diff. of weight, vehicle vs. NU-9","WT-UeGFP (vehicle) vs. WT-UeGFP (NU-9 20 mg/kg/day), P116, Tukey's multiple comparisons test",-1.267
same,"Mean Diff. of weight, vehicle vs. NU-9","WT-UeGFP (vehicle) vs. WT-UeGFP (NU-9 100 mg/kg/day), P60, Tukey's multiple comparisons test",-0.01818
same,"Mean Diff. of weight, vehicle vs. NU-9","WT-UeGFP (vehicle) vs. WT-UeGFP (NU-9 100 mg/kg/day), P67, Tukey's multiple comparisons test",-0.7545
same,"Mean Diff. of weight, vehicle vs. NU-9","WT-UeGFP (vehicle) vs. WT-UeGFP (NU-9 100 mg/kg/day), P74, Tukey's multiple comparisons test",-0.2818
same,"Mean Diff. of weight, vehicle vs. NU-9","WT-UeGFP (vehicle) vs. WT-UeGFP (NU-9 100 mg/kg/day), P81, Tukey's multiple comparisons test",-0.9364
same,"Mean Diff. of weight, vehicle vs. NU-9","WT-UeGFP (vehicle) vs. WT-UeGFP (NU-9 100 mg/kg/day), P88, Tukey's multiple comparisons test",-0.2091
same,"Mean Diff. of weight, vehicle vs. NU-9","WT-UeGFP (vehicle) vs. WT-UeGFP (NU-9 100 mg/kg/day), P95, Tukey's multiple comparisons test",-0.2
same,"Mean Diff. of weight, vehicle vs. NU-9","WT-UeGFP (vehicle) vs. WT-UeGFP (NU-9 100 mg/kg/day), P102, Tukey's multiple comparisons test",-0.5636
same,"Mean Diff. of weight, vehicle vs. NU-9","WT-UeGFP (vehicle) vs. WT-UeGFP (NU-9 100 mg/kg/day), P109, Tukey's multiple comparisons test",-0.2545
same,"Mean Diff. of weight, vehicle vs. NU-9","WT-UeGFP (vehicle) vs. WT-UeGFP (NU-9 100 mg/kg/day), P116, Tukey's multiple comparisons test",-0.7576
same,Mean weight (Mean 2),"NU-9 20 mg/kg/day, P60",18.4
same,Mean weight (Mean 2),"NU-9 20 mg/kg/day, P67",19
same,Mean weight (Mean 2),"NU-9 20 mg/kg/day, P74",18.8
same,Mean weight (Mean 2),"NU-9 20 mg/kg/day, P81",18.2
same,Mean weight (Mean 2),"NU-9 20 mg/kg/day, P88",18.8
same,Mean weight (Mean 2),"NU-9 20 mg/kg/day, P95",18.8
same,Mean weight (Mean 2),"NU-9 100 mg/kg/day, P60",17.82
same,Mean weight (Mean 2),"NU-9 100 mg/kg/day, P67",18.45
same,Mean weight (Mean 2),"NU-9 100 mg/kg/day, P74",18.18
same,Mean weight (Mean 2),"NU-9 100 mg/kg/day, P81",18.64
same,Mean weight (Mean 2),"NU-9 100 mg/kg/day, P88",18.91
same,Mean weight (Mean 2),"NU-9 100 mg/kg/day, P95",19
same,"Weight, Average","NU-9 20 mg/kg/day po, P60",18.4 g
same,"Weight, Average","NU-9 20 mg/kg/day po, P67",19 g
same,"Weight, Average","NU-9 20 mg/kg/day po, P74",18.8 g
same,"Weight, Average","NU-9 20 mg/kg/day po, P81",18.2 g
same,"Weight, Average","NU-9 20 mg/kg/day po, P88",18.8 g
same,"Weight, Average","NU-9 20 mg/kg/day po, P95",18.8 g
same,"Weight, Average","NU-9 20 mg/kg/day po, P102",19 g
same,"Weight, Average","NU-9 20 mg/kg/day po, P109",20.2 g
same,"Weight, Average","NU-9 20 mg/kg/day po, P116",20.6 g
same,"Weight, Average","NU-9 100 mg/kg/day po, P60",17.8182 g
same,"Weight, Average","NU-9 100 mg/kg/day po, P67",18.6 g
same,"Weight, Average","NU-9 100 mg/kg/day po, P74",18.1 g
same,"Weight, Average","NU-9 100 mg/kg/day po, P81",18.7 g
same,"Weight, Average","NU-9 100 mg/kg/day po, P88",18.9 g
same,"Weight, Average","NU-9 100 mg/kg/day po, P95",19 g
same,"Weight, Average","NU-9 100 mg/kg/day po, P102",19.5 g
same,"Weight, Average","NU-9 100 mg/kg/day po, P109",19.6 g
same,"Weight, Average","NU-9 100 mg/kg/day po, P116",20.3 g
